Data taken from US7018396B2, “Method of treating acne” (New England Medical Center Hospitals, Inc., priority 2001, dated 2006).

System: sebaceous glands present in skin of the hamster ear
Assay: Hamster ear model: topical uptake of ICG into sebaceous glands (white light and fluorescence micrographs)
Format: in vivo
Conditions: 24 hours, 810 nm illumination, 840 nm bandpass filter
Procedure: A chromophore is considered “selectively introduced” to sebaceous glands according to the invention if greater than or equal to about 90% of the chromophore remaining associated with the skin after removal of excess chromophore preparation from the skin surface is observed in sebaceous glands. The proportion of a particular chromophore localized to sebaceous glands from a particular chromophore preparation (e.g., chromophore in oil or chromophore in liposomes or lipid suspension) is determined using an appropriate animal model, such as the hamster ear model described herein. Hamsters are known to have sebaceous glands in their ears. These glands are typically on the order of 200 μm in diameter, making them somewhat larger than typical sebaceous glands in humans. Nonetheless, the hamster ear is a convenient and instructive model for human skin and sebaceous glands.
For example, the non-lipophilic chromophore indocyanine green was introduced to sebaceous glands present in skin of the hamster ear according to the following method. The lipid chromophore suspension was topically applied to hamster ears and allowed to travel into the pores and sebaceous glands for 24 hours. After this time, the hamsters were euthanized and their ears were examined for evidence of ICG in the sebaceous glands. […] ICG fluorescence (840 nm) is stimulated by irradiation with 810 nm light. […]

## CC1(C)C(/C=C/C=C/C=C/C=C2\N(CCCCS(=O)(=O)O)c3ccc4ccccc4c3C2(C)C)=[N+](CCCCS(=O)(=O)[O-])c2ccc3ccccc3c21 [indocyanine green]
  localization of chromophore in skin: present in the sebaceous glands but not in the tissue between the glands
